US20160120888A1, “ANTICANCER DRUG” (KTN BIOTEC, INC., priority 2013, published 2016)

Legend:
Format in all cases: cell-based
[1] = system: Lu-65 human lung cancer cell line; assay: Cell viability assay (MTT), Lu-65 lung cancer cells; conditions: human lung cancer cell (Lu65), 48 hr treatment, FIG. 4A
Protocol: (§1) FIG. 4 is a graph showing that diDCP-LA-PI and diDCP-LA-PIe induce cell death of (A) human lung cancer cell (Lu65), (B) gastric cancer cell (MKN28), (C) breast cancer cell (MCF-7) in a concentration-dependent manner. The cells were treated with a given concentration of diDCP-LA-PI or diDCP-LA-PIe for 48 hr, and subjected to MTT assay.
Lu-65 human lung cancer cell line was purchased from Health Science Research Resources Bank (Osaka, Japan), and cultured in RPMI-1640 medium.
(§2) In all cell cultures, the cells were incubated in a medium added with 10% (v/v) heat-inactivated bovine serum, penicillin (final concentration, 100 U/ml) and streptomycin (final concentration, 0.1 mg/ml) in a humid environment under 5% CO2 and 95% air at 37° C.
(§3) The cell viability was evaluated by an established method using 3-(4,5-dimethyl-2-thiazolyl)-2,5-diphenyl-2H-tetrazolium bromide (MTT).

[2] = system: MKN28 human gastric cancer cell line; assay: Cell viability assay (MTT), MKN28 gastric cancer cells; conditions: 48 hr treatment, FIG. 4B
Protocol: as §1
MKN28 human gastric cancer cell line was provided by Dr. Tatematsu (Nagoya University, Japan), and cultured in RPMI-1640 medium.
as §2, §3

[3] = system: MCF-7 human breast cancer cell line; assay: Cell viability assay (MTT), MCF-7 breast cancer cells; conditions: breast cancer cell (MCF-7), 48 hr treatment, FIG. 4C
Protocol: as §1
MCF-7 human breast cancer cell line was obtained from RIKEN cell bank (Ibaraki, Japan) and cultured in Dulbecco's modified Eagle's medium (DMEM).
as §2, §3

[4] = system: human malignant pleural mesothelioma cell lines NCI-H28, NCI-H2052, NCI-H2452, MSTO-211H; assay: Cell viability assay (MTT), human malignant pleural mesothelioma cell lines; conditions: 48 hr treatment; for cell death induction (MTT intensity relative to cells free of drug treatment): FIG. 2 / FIG. 3
Protocol: FIG. 2 is a graph showing that diDCP-LA-PI and diDCP-LA-PIe induce cell death of human malignant pleural mesothelioma in a concentration-dependent manner. The cells were treated with a given concentration of diDCP-LA-PI or diDCP-LA-PIe for 48 hr, and subjected to MTT assay.
FIG. 3 is a graph showing that DO-PI and DP-PI induce the same level of cell death of human malignant pleural mesothelioma in a concentration-dependent manner. The cells were treated with a given concentration of DO-PI or DP-PI for 48 hr, and subjected to MTT assay.
NCI-H28, NCI-H2052, NCI-H2452, and MSTO-211H which are cell lines of human malignant pleural mesothelioma were used.
These cells were purchased from American Type Culture Collection (Manassas, Va., USA). The cells were cultured in Roswell Park Memorial Institute (RPMI)-1640 medium added with 0.003% (w/v) L-glutamine.
as §2, §3

Compound | cell death induction (MTT intensity relative to cells free of drug treatment) [1] | effectiveness of cell death induction compared with diDCP-LA-PI [1] | cell death induction (MTT intensity relative to cells free of drug treatment) [2] | effectiveness of cell death induction compared with diDCP-LA-PI [2] | cell death induction (MTT intensity relative to cells free of drug treatment) [3] | effectiveness of cell death induction compared with diDCP-LA-PI [3] | cell death induction (MTT intensity relative to cells free of drug treatment) [4] | effectiveness of cell death induction compared with diDCP-LA-PI ([4]; human malignant pleural mesothelioma cells, FIG. 2)
1,2-O-bis-[8-{2-(2-pentyl-cyclopropylmethyl)-cyclopropyl}-octanoyl]-sn-glycerol-3-phosphatidyl-L-1-inositol [diDCP-LA-PIe] | induce cell death of human lung cancer, gastric cancer and breast cancer in a concentration dependent manner | more effective | induce cell death of human lung cancer, gastric cancer and breast cancer in a concentration dependent manner | more effective | induce cell death of human lung cancer, gastric cancer and breast cancer in a concentration dependent manner | more effective | induce cell death of human malignant pleural mesothelioma cells in a concentration dependent manner | more effective
1,2-O-bis-[8-{2-(2-pentyl-cyclopropylmethyl)-cyclopropyl}-octanoyl]-sn-glycerol-3-phosphatidyl-D-inositol [diDCP-LA-PI] | induce cell death of human lung cancer, gastric cancer and breast cancer in a concentration dependent manner | – | induce cell death of human lung cancer, gastric cancer and breast cancer in a concentration dependent manner | – | induce cell death of human lung cancer, gastric cancer and breast cancer in a concentration dependent manner | – | induce cell death of human malignant pleural mesothelioma cells in a concentration dependent manner | –
CCCCCCCCCCCCCCCC(=O)OC[C@H](COP(=O)(O)O[C@@H]1[C@H](O)[C@H](O)[C@@H](O)[C@H](O)[C@H]1O)OC(=O)CCCCCCCCCCCCCCC [DP-PI, 1,2-dipalmitoyl-sn-glycerol-3-phospho-(1′-myo-inositol)] | – | – | – | – | – | – | induce the same level of cell death of human malignant pleural mesothelioma cells in a concentration dependent manner | –
CCCCCCCC/C=C\CCCCCCCC(=O)OC[C@H](COP(=O)(O)OC1C(O)C(O)C(O)[C@@H](O)C1O)OC(=O)CCCCCCC/C=C\CCCCCCCC (some centres unmarked) [DO-PI, 1,2-dioleoyl-sn-glycerol-3-phospho-(1′-myo-inositol)] | – | – | – | – | – | – | induce the same level of cell death of human malignant pleural mesothelioma cells in a concentration dependent manner | –
